Values of other authors in paper PMC8342870 (International Journal of Biological Macromolecules, 2021).

Biological target: SARS-CoV-2 PLpro (Severe acute respiratory syndrome coronavirus 2, UniProt P0DTD1)
Settings: previous work ref 29

CN1C[C@H](C(=O)N[C@]2(C)O[C@@]3(O)[C@@H]4CCCN4C(=O)[C@H](Cc4ccccc4)N3C2=O)C=C2c3cccc4[nH]cc(c34)C[C@H]21 [ergotamine]
reported rigid docking score: -9.2 kcal/mol
